Experimental data reported in PMC9014415, “Repositioning of a Diaminothiazole Series Confirmed to Target the Cyclin-Dependent Kinase CRK12 for Use in the Treatment of African Animal Trypanosomiasis” (Journal of Medicinal Chemistry, 2022).
In brackets after ≈: the same amount, converted by molar mass.

Assay: Solubility of compound 1 in PBS pH 7.4 (filtration, UHPLC)
Type: physicochemical
Conditions: phosphate buffered saline; aqueous; PBS pH 7.4, 24 h mixing, UHPLC (method used for compound 1)
Description: software. All experiments were conducted with technical duplicates and at least three biological […]
1.4 Cytotoxicity assays – Rat skeletal myoblasts (L6)
The cytotoxicity of test compounds was evaluated using a rat skeletal myoblast (L6) cell line, as previously described3, but with minor modifications. Cells were grown in RPMI media supplemented with 10% (v/v) fetal calf serum. L6 cells at a seeding density of 2 x 10^4 cells/mL were incubated in microtiter plates overnight at 37 °C and 5 % CO2 until adherent. The following day, test compounds were added to the plates (3-fold serial dilutions), prior to incubation for 69 h. […] The plates were read using a SpectraMax (Gemini XS) fluorescence reader at an excitation wavelength of 536 nm and an emission wavelength of 588 nm. EC50 values were determined using SOFTmax Pro 5.2 analysis software. […]
The aqueous solubility of test compounds was measured using laser nephelometry. […] Triplicate aliquots were transferred to a flat-bottomed polystyrene plate which was immediately read on a NEPHELOstar nephelometer (BMG Lab Technologies). […]
Solubility of compound 1 was measured by a different method. […]
solution was then mixed for 24 h (rotary mixing, 900 rpm, 25°C) excluding light. […] The resulting filtrate was analysed for dissolved compound 1 using a truncated UHPLC methodology. […]

Work on `CC(C)CS(=O)(=O)N[C@H]1CC[C@H](Nc2nc(N)c(C(=O)c3c(F)cccc3F)s2)CC1` [Compound 1, N-((trans)-4-((4-Amino-5-(2,6-difluorobenzoyl)thiazol-2-yl)amino)cyclohexyl)-2-methylpropane-1-sulfonamide] yielded a solubility at 24 h of 105 µM (≈ 49.6 µg/mL).
